“And” between values parts separate entries of the source, which are not always exact repeats. Equal values may be shown once.
Test system: 439559-082-T-J2-PDC complex spheroid growth
Test: Anticancer human tumor 439559-082-T-J2-PDC patient-derived colon adenocarcinoma cell line growth inhibition [Asc]
Conditions: for viability, T/C: stronger effect = lower value
How it was run: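 Concentration series start at each agent's clinical Cmax, or at 10 microM when none is established, and drop in half-log steps; agents are applied alone or together to complex spheroids built with HUVEC and hMSC.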

[1] = curve of first compound, second compound 0.00316 µM
[2] = curve of first compound, second compound 0.01 µM
[3] = curve of first compound, second compound 0.0316 µM
[4] = curve of first compound, second compound 0.1 µM
[5] = curve of first compound, second compound 0.316 µM
[6] = curve of first compound, second compound 1 µM
[7] = second compound 0.1 µM, first compound 0.00949 µM
[8] = second compound 0.1 µM, first compound 0.03 µM
[9] = second compound 0.1 µM, first compound 0.0949 µM
[10] = second compound 0.1 µM, first compound 0.3 µM
[11] = second compound 0.1 µM, first compound 0.949 µM
[12] = second compound 0.1 µM, first compound 3 µM
[13] = second compound 0.316 µM, first compound 0.00949 µM
[14] = second compound 0.316 µM, first compound 0.03 µM
[15] = second compound 0.316 µM, first compound 0.0949 µM
[16] = second compound 0.316 µM, first compound 0.3 µM
[17] = second compound 0.316 µM, first compound 0.949 µM
[18] = second compound 0.316 µM, first compound 3 µM
[19] = second compound 1 µM, first compound 0.00949 µM
[20] = second compound 1 µM, first compound 0.03 µM
[21] = second compound 1 µM, first compound 0.0949 µM
[22] = second compound 1 µM, first compound 0.3 µM
[23] = second compound 1 µM, first compound 0.949 µM
[24] = second compound 1 µM, first compound 3 µM
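Further: spheroids exposed to agents for 7 days starting day 3 after seeding.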
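Wherever viability, T/C is given: percent of DMSO vehicle control viability with 100% = vehicle.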

Q: With `Cc1nc(N2CCC3(CC2)COC(C)C3N)c(CO)nc1Sc1ccnc(N)c1Cl` (stereo unspecified) + CNC(C)C(=O)NC1CN(S(=O)(=O)c2cccc(S(=O)(=O)N3CCC4CCC(C(=O)NC(c5ccccc5)c5ccccc5)N4C(=O)C(NC(=O)C(C)NC)C3)c2)CCC2CCC(C(=O)NC(c3ccccc3)c3ccccc3)N2C1=O as the compound, how does the IC50 [1] read?
A: > 3000 nM

Q: And the IC50 [2]?
A: > 3000 nM

Q: What about the IC50 [3] of the same compound?
A: > 3000 nM

Q: And the IC50 [4]?
A: > 3000 nM

Q: What about the IC50 [5] of the same compound?
A: > 3000 nM

Q: What about the IC50 [6] of the same compound?
A: 2270 nM

Q: What about the viability, T/C (second compound 0.00316 µM, first compound 0.00949 µM) of the same compound?
A: 98.2%

Q: What about the viability, T/C (second compound 0.00316 µM, first compound 0.03 µM) of the same compound?
A: 91.5%

Q: What about the viability, T/C (second compound 0.00316 µM, first compound 0.0949 µM) of the same compound?
A: 89.7%

Q: What about the viability, T/C (second compound 0.00316 µM, first compound 0.3 µM) of the same compound?
A: 94%

Q: And the viability, T/C (second compound 0.00316 µM, first compound 0.949 µM)?
A: 95.4%

Q: What about the viability, T/C (second compound 0.00316 µM, first compound 3 µM) of the same compound?
A: 71.5%

Q: And the viability, T/C (second compound 0.01 µM, first compound 0.00949 µM)?
A: 98.4%

Q: And the viability, T/C (second compound 0.01 µM, first compound 0.03 µM)?
A: 104%

Q: And the viability, T/C (second compound 0.01 µM, first compound 0.0949 µM)?
A: 95.3%

Q: What about the viability, T/C (second compound 0.01 µM, first compound 0.3 µM) of the same compound?
A: 83%

Q: What about the viability, T/C (second compound 0.01 µM, first compound 0.949 µM) of the same compound?
A: 87.3%

Q: What about the viability, T/C (second compound 0.01 µM, first compound 3 µM) of the same compound?
A: 73.3%

Q: And the viability, T/C (second compound 0.0316 µM, first compound 0.00949 µM)?
A: 104%

Q: And the viability, T/C (second compound 0.0316 µM, first compound 0.03 µM)?
A: 98.8%

Q: What about the viability, T/C (second compound 0.0316 µM, first compound 0.0949 µM) of the same compound?
A: 89.4%

Q: What about the viability, T/C (second compound 0.0316 µM, first compound 0.3 µM) of the same compound?
A: 97.2%

Q: And the viability, T/C (second compound 0.0316 µM, first compound 0.949 µM)?
A: 75.8%

Q: And the viability, T/C (second compound 0.0316 µM, first compound 3 µM)?
A: 69.5%

Q: And the viability, T/C [7]?
A: 93.7%

Q: What about the viability, T/C [8] of the same compound?
A: 96.7%

Q: And the viability, T/C [9]?
A: 95.5%

Q: What about the viability, T/C [10] of the same compound?
A: 84.2%

Q: What about the viability, T/C [11] of the same compound?
A: 81.3%

Q: And the viability, T/C [12]?
A: 64.8%

Q: And the viability, T/C [13]?
A: 94.4%

Q: And the viability, T/C [14]?
A: 88.1%

Q: And the viability, T/C [15]?
A: 79%

Q: What about the viability, T/C [16] of the same compound?
A: 72.1%

Q: What about the viability, T/C [17] of the same compound?
A: 67%

Q: What about the viability, T/C [18] of the same compound?
A: 59.9%

Q: What about the viability, T/C [19] of the same compound?
A: 72.9%

Q: What about the viability, T/C [20] of the same compound?
A: 76.8%

Q: What about the viability, T/C [21] of the same compound?
A: 69.3%

Q: And the viability, T/C [22]?
A: 62.9%

Q: And the viability, T/C [23]?
A: 66.6%

Q: And the viability, T/C [24]?
A: 45%

Q: With `C#Cc1c(F)ccc2cc(O)cc(-c3ncc4c(N5CC6CCC(C5)N6)nc(OCC56CCCN5CC(F)C6)nc4c3F)c12` (stereo unspecified) as the compound, how does the viability, T/C (compound 0.0316 µM) read?
A: 95.9% and 87.4% and 92.5%

Q: What about the viability, T/C (compound 0.1 µM) of the same compound?
A: 77.6% and 80.5% and 82.3%

Q: And the viability, T/C (compound 0.316 µM)?
A: 68.5% and 59.4% and 65.4%

Q: And the viability, T/C (compound 1 µM)?
A: 64.9% and 53.9% and 55.5%

Q: What about the viability, T/C (compound 3.16 µM) of the same compound?
A: 55.5% and 55.7% and 51.2%

Q: And the viability, T/C (compound 10 µM)?
A: 41% and 37.7% and 39.6%

Q: And the IC50 (curve of compound)?
A: 4300 nM and 2360 nM and 2430 nM

Q: What does the source list for `O=C(c1ccc(F)c(F)c1Nc1ccc(I)cc1F)N1CC(O)([C@@H]2CCCCN2)C1` + CNC(C)C(=O)NC1CN(S(=O)(=O)c2cccc(S(=O)(=O)N3CCC4CCC(C(=O)NC(c5ccccc5)c5ccccc5)N4C(=O)C(NC(=O)C(C)NC)C3)c2)CCC2CCC(C(=O)NC(c3ccccc3)c3ccccc3)N2C1=O?
A: IC50 [1]: 262 nM; IC50 [2]: 248 nM; IC50 [3]: 253 nM; IC50 [4]: 228 nM; IC50 [5]: 141 nM; IC50 [6]: 124 nM; viability, T/C (second compound 0.00316 µM, first compound 0.00316 µM): 96.6%; viability, T/C (second compound 0.00316 µM, first compound 0.01 µM): 77.4%; viability, T/C (second compound 0.00316 µM, first compound 0.0316 µM): 76.8%; viability, T/C (second compound 0.00316 µM, first compound 0.1 µM): 67.9%; viability, T/C (second compound 0.00316 µM, first compound 0.316 µM): 48.6%; viability, T/C (second compound 0.00316 µM, first compound 1 µM): 16.2%; viability, T/C (second compound 0.01 µM, first compound 0.00316 µM): 99.5%; viability, T/C (second compound 0.01 µM, first compound 0.01 µM): 107%; viability, T/C (second compound 0.01 µM, first compound 0.0316 µM): 87.7%; viability, T/C (second compound 0.01 µM, first compound 0.1 µM): 61.9%; viability, T/C (second compound 0.01 µM, first compound 0.316 µM): 51%; viability, T/C (second compound 0.01 µM, first compound 1 µM): 25.6%; viability, T/C (second compound 0.0316 µM, first compound 0.00316 µM): 108%; viability, T/C (second compound 0.0316 µM, first compound 0.01 µM): 95.6%; viability, T/C (second compound 0.0316 µM, first compound 0.0316 µM): 89.5%; viability, T/C (second compound 0.0316 µM, first compound 0.1 µM): 63.5%; viability, T/C (second compound 0.0316 µM, first compound 0.316 µM): 47.6%; viability, T/C (second compound 0.0316 µM, first compound 1 µM): 27.1%; viability, T/C (second compound 0.1 µM, first compound 0.00316 µM): 86.8%; viability, T/C (second compound 0.1 µM, first compound 0.01 µM): 98.3%; viability, T/C (second compound 0.1 µM, first compound 0.0316 µM): 86.7%; viability, T/C (second compound 0.1 µM, first compound 0.1 µM): 61.6%; viability, T/C (second compound 0.1 µM, first compound 0.316 µM): 46.7%; viability, T/C (second compound 0.1 µM, first compound 1 µM): 17%; viability, T/C (second compound 0.316 µM, first compound 0.00316 µM): 89.8%; viability, T/C (second compound 0.316 µM, first compound 0.01 µM): 101%; viability, T/C (second compound 0.316 µM, first compound 0.0316 µM): 69.8%; viability, T/C (second compound 0.316 µM, first compound 0.1 µM): 51.4%; viability, T/C (second compound 0.316 µM, first compound 0.316 µM): 46.8%; viability, T/C (second compound 0.316 µM, first compound 1 µM): 25%; viability, T/C (second compound 1 µM, first compound 0.00316 µM): 72.2%; viability, T/C (second compound 1 µM, first compound 0.01 µM): 68%; viability, T/C (second compound 1 µM, first compound 0.0316 µM): 68.2%; viability, T/C (second compound 1 µM, first compound 0.1 µM): 48.4%; viability, T/C (second compound 1 µM, first compound 0.316 µM): 39%; viability, T/C (second compound 1 µM, first compound 1 µM): 15.5%

Q: What does the source list for `CCN1C(C(=O)NC23CCC(C(=O)O)(CC2)CC3)C(c2cccc(Cl)c2F)C2(C(=O)Nc3cc(Cl)ccc32)C12CCCCC2` (stereo unspecified) + Cc1c(S(C)(=O)=O)c(-c2cc(F)cc(N3CCN(c4ccc(NS(=O)(=O)c5ccc(NC(CCN6CCC(C(=O)OCCCP(=O)(O)O)CC6)CSc6ccccc6)c(S(=O)(=O)C(F)(F)F)c5)cc4)CC3)c2)c(-c2ccc(Cl)cc2)n1C(C)C?
A: IC50 [4]: > 3000 nM; IC50 [5]: > 3000 nM; IC50 [6]: > 3000 nM; IC50 (curve of first compound, second compound 3.16 µM): > 3000 nM; IC50 (curve of first compound, second compound 10 µM): > 3000 nM; viability, T/C [7]: 96.8%; viability, T/C [8]: 104%; viability, T/C [9]: 102%; viability, T/C [10]: 98.6%; viability, T/C [11]: 95.4%; viability, T/C [12]: 93.1%; viability, T/C [13]: 103%; viability, T/C [14]: 104%; viability, T/C [15]: 102%; viability, T/C [16]: 87.8%; viability, T/C [17]: 97.9%; viability, T/C [18]: 86.2%; viability, T/C [19]: 90.8%; viability, T/C [20]: 97%; viability, T/C [21]: 99.7%; viability, T/C [22]: 84.5%; viability, T/C [23]: 88.5%; viability, T/C [24]: 79.3%; viability, T/C (second compound 3.16 µM, first compound 0.00949 µM): 81.5%; viability, T/C (second compound 3.16 µM, first compound 0.03 µM): 92%; viability, T/C (second compound 3.16 µM, first compound 0.0949 µM): 91.4%; viability, T/C (second compound 3.16 µM, first compound 0.3 µM): 89%; viability, T/C (second compound 3.16 µM, first compound 0.949 µM): 82%; viability, T/C (second compound 3.16 µM, first compound 3 µM): 67.8%; viability, T/C (second compound 10 µM, first compound 0.00949 µM): 69.9%; viability, T/C (second compound 10 µM, first compound 0.03 µM): 77.7%; viability, T/C (second compound 10 µM, first compound 0.0949 µM): 74.3%; viability, T/C (second compound 10 µM, first compound 0.3 µM): 69.5%; viability, T/C (second compound 10 µM, first compound 0.949 µM): 74.1%; viability, T/C (second compound 10 µM, first compound 3 µM): 57.3%

Source: PubChem BioAssay AID1963423 (Molecular Pharmacology Branch, DTP, NCI, 2024)
